Patent US8383581B2, “Short-chain peptides as parathyroid hormone (PTH) receptor agonist” (Cadila Healthcare Limited, priority 2009, dated 2013)
Where a SMILES comes first, the peptide text is derived from it. [ ]: non-standard residue; d: D form. ξ: configuration not given here. ξαMeBip(2'-Et,4'-OMe) = CCc1cc(OC)ccc1-c1ccc(CC(C)(N)C(=O)O)cc1; Arg(NO2) = N=C(NCCC[C@H](N)C(=O)O)N[N+](=O)[O-]; ξαMePhe(2,6-F2) = CC(N)(Cc1c(F)cccc1F)C(=O)O; ξαMe(hhPhe) = CC(N)(CCCc1ccccc1)C(=O)O; ξαMePhe(2-F) = CC(N)(Cc1ccccc1F)C(=O)O; hhPhe = N[C@@H](CCCc1ccccc1)C(=O)O; hArg = N=C(N)NCCCC[C@H](N)C(=O)O; ξαMeF = CC(N)(Cc1ccccc1)C(=O)O; NMeV = CN[C@H](C(=O)O)C(C)C; ξαMeM = CSCCC(C)(N)C(=O)O; Nle = CCCC[C@H](N)C(=O)O; ξαMeP = CC1(C(=O)O)CCCN1; Ac5c = NC1(C(=O)O)CCCC1; Ac3c = NC1(C(=O)O)CC1; Aib = CC(C)(N)C(=O)O

Experiments:
Format in all cases: in vitro ADME
[1] = Stability of peptides in human plasma; settings: human, plasma; for metabolised at 24 h, 2 μM: pH 7.8
Summary of the method: (§1)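 Peptides at 2 μM final incubated 0–24 h at 37 °C (50 mM triethanolamine-HCl, pH 7.8) in each matrix, matrix level set to degrade ~50% PTH(1-34) in 1 h; TFA-quenched, C18 HPLC at 206 nm with ESI-MS peak identification; percent degradation from peak areas at each time point.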

[2] = Stability of peptides in simulated gastric fluid (pH 1.5; HCl, NaCl and Pepsin); settings: pH 1.5; for % degradation of peptides in 24 h when incubated with simulated gastric fluid: 2 μM; for half-life / half-life (t1/2) in simulated gastric fluid: simulated gi fluid
[3] = Stability of peptides in simulated intestinal fluid (pH 7.5); settings: pH 7.5; for half-life / half-life (t1/2) in simulated intestinal fluid: simulated gi fluid; for % degradation of peptides in 24 h when incubated with simulated intestinal fluid: 2 μM
Summary of the method: as §1

[4] = Stability of peptides in human liver microsomes; settings: human, microsomes; for % degradation of peptides in 24 h when incubated with liver microsomes: 2 μM, pH 7.8
Summary of the method: as §1

Row | SMILES | half-life [1] | metabolised at 24 h, 2 μM [1] | % degradation of peptides in 24 h when incubated with simulated gastric fluid [2] | half-life [2] | half-life [3] | % degradation of peptides in 24 h when incubated with simulated intestinal fluid [3] | half-life (t1/2) in liver microsomes [4] | % degradation of peptides in 24 h when incubated with liver microsomes [4] | half-life (t1/2) in human plasma [1] | half-life [4] | half-life (t1/2) in simulated gastric fluid [2] | half-life (t1/2) in simulated intestinal fluid [3]
1 | CCCC[C@H](NC(=O)C(C)(Cc1ccccc1F)NC(=O)[C@H](CCC(N)=O)NC(=O)[C@@H](NC(=O)[C@H](CCC(=O)O)NC(=O)C1(NC(=O)[C@@H](NC(=O)C(C)(C)N)C(C)C)CCCC1)[C@@H](C)CC)C(=O)N[C@@H](Cc1c[nH]cn1)C(=O)N[C@@H](CCC(N)=O)C(=O)N[C@@H](CCCCNC(=N)N)C(=O)N1CCCC1(C)C(=O)N[C@@H](CCCCN)C(=O)NC(C)(Cc1ccccc1F)C(N)=O (stereo partly drawn) [Seq. ID. 62] (H-[Aib]V[Ac5c]EIQ[ξαMePhe(2-F)][Nle]HQ[hArg][ξαMeP]K[ξαMePhe(2-F)]-NH2) | > 24 h | 0% | 00% | > 24 h | > 24 h | 00% | (5) h | 33% | – | – | – | –
2 | CCc1cc(OC)ccc1-c1ccc(CC(C)(NC(=O)[C@H](CCCCN)NC(=O)[C@H](C)NC(=O)[C@H](CCCCNC(=N)N)NC(=O)[C@H](CCC(N)=O)NC(=O)[C@H](Cc2c[nH]cn2)NC(=O)[C@H](CCSC)NC(=O)[C@H](CC(C)C)NC(=O)[C@H](CCC(N)=O)NC(=O)[C@@H](NC(=O)[C@H](CCC(=O)O)NC(=O)C(C)(C)NC(=O)[C@@H](NC(=O)C(C)(C)N)C(C)C)[C@@H](C)CC)C(=O)N[C@@H](CCCc2ccccc2)C(N)=O)cc1 (stereo partly drawn) [Seq. ID. 890] (H-[Aib]V[Aib]EIQLMHQ[hArg]AK[ξαMeBip(2'-Et,4'-OMe)][hhPhe]-NH2) | > 24 h | 0% | 00% | > 24 h | > 24 h | 00% | (5) h | 32% | – | – | – | –
3 | CC[C@H](C)[C@H](NC(=O)[C@H](CCC(=O)O)NC(=O)C(C)(C)NC(=O)[C@@H](NC(=O)C1(NC(=O)[C@@H](NC)C(C)C)CCCC1)C(C)C)C(=O)N[C@@H](CCC(N)=O)C(=O)N[C@@H](CC(C)C)C(=O)NC(C)(CCSC)C(=O)N[C@@H](Cc1c[nH]cn1)C(=O)N[C@@H](CCC(N)=O)C(=O)N[C@@H](CCCCNC(=N)N)C(=O)N[C@@H](C)C(=O)N[C@@H](CCCCNC(=N)N)C(=O)NC(C)(Cc1ccccc1F)C(=O)NC(C)(CCCc1ccccc1)C(N)=O (stereo partly drawn) [Seq. ID. 940] (H-[NMeV][Ac5c]V[Aib]EIQL[ξαMeM]HQ[hArg]A[hArg][ξαMePhe(2-F)][ξαMe(hhPhe)]-NH2) | > 24 h | 0% | 00% | > 24 h | > 24 h | 00% | (5) h | 32% | – | – | – | –
4 | CCCC[C@H](NC(=O)C(C)(Cc1ccccc1F)NC(=O)[C@H](CCC(N)=O)NC(=O)[C@@H](NC(=O)[C@H](CCC(=O)O)NC(=O)C(C)(C)NC(=O)[C@@H](NC(=O)C1(N)CC1)C(C)C)[C@@H](C)CC)C(=O)N[C@@H](Cc1c[nH]cn1)C(=O)N[C@@H](CCC(N)=O)C(=O)N[C@@H](CCCCNC(=N)N)C(=O)NC(C)(C)C(=O)N[C@@H](CCCCN)C(=O)NC(C)(Cc1c(F)cccc1F)C(N)=O (stereo partly drawn) [Seq. ID. 95] (H-[Ac3c]V[Aib]EIQ[ξαMePhe(2-F)][Nle]HQ[hArg][Aib]K[ξαMePhe(2,6-F2)]-NH2) | – | 80% | 100% | 0.5 h | 0.5 h | 100% | – | 100% | (9) h | 0.5 h | – | –
5 | CCCC[C@H](NC(=O)C(C)(Cc1c(F)cccc1F)NC(=O)[C@H](CCC(N)=O)NC(=O)[C@@H](NC(=O)[C@H](CCC(=O)O)NC(=O)C(C)(C)NC(=O)[C@@H](NC(=O)C(C)(C)N)C(C)C)[C@@H](C)CC)C(=O)N[C@@H](Cc1c[nH]cn1)C(=O)N[C@@H](CCC(N)=O)C(=O)NC(C)(Cc1c(F)cccc1F)C(=O)N[C@@H](C)C(=O)N[C@@H](CCCNC(=N)N[N+](=O)[O-])C(=O)NC(C)(Cc1ccccc1F)C(N)=O (stereo partly drawn) [Seq. ID. 525] (H-[Aib]V[Aib]EIQ[ξαMePhe(2,6-F2)][Nle]HQ[ξαMePhe(2,6-F2)]A[Arg(NO2)][ξαMePhe(2-F)]-NH2) | 8 h | 78% | 12% | – | – | 55% | – | 79% | – | 1 h | (8) h | (6) h
6 | CCCC[C@H](NC(=O)C(C)(Cc1c(F)cccc1F)NC(=O)[C@H](CCC(N)=O)NC(=O)[C@@H](NC(=O)[C@H](CCC(=O)O)NC(=O)C(C)(C)NC(=O)[C@@H](NC(=O)C(C)(C)N)C(C)C)[C@@H](C)CC)C(=O)N[C@@H](Cc1c[nH]cn1)C(=O)N[C@@H](CCC(N)=O)C(=O)NC(C)(Cc1c(F)cccc1F)C(=O)NC(C)(C)C(=O)NC(C)(Cc1c(F)cccc1F)C(=O)NC(C)(Cc1ccccc1F)C(N)=O (stereo partly drawn) [Seq. ID. 510] (H-[Aib]V[Aib]EIQ[ξαMePhe(2,6-F2)][Nle]HQ[ξαMePhe(2,6-F2)][Aib][ξαMePhe(2,6-F2)][ξαMePhe(2-F)]-NH2) | > 24 h | 0% | 41% | 4 h | > 24 h | 00% | – | 80% | – | 2 h | – | –
7 | CC[C@H](C)[C@H](NC(=O)[C@H](CCC(=O)O)NC(=O)C(C)(C)NC(=O)[C@@H](NC(=O)C1(N)CC1)C(C)C)C(=O)N[C@@H](CCC(N)=O)C(=O)N[C@@H](CC(C)C)C(=O)N[C@@H](CCSC)C(=O)N[C@@H](Cc1c[nH]cn1)C(=O)N[C@@H](CCC(N)=O)C(=O)N[C@@H](CCCCNC(=N)N)C(=O)NC(C)(C)C(=O)N[C@@H](CCCCN)C(=O)NC(C)(Cc1ccccc1)C(N)=O (stereo partly drawn) [Seq. ID. 14] (H-[Ac3c]V[Aib]EIQLMHQ[hArg][Aib]K[ξαMeF]-NH2) | 8 h | 69% | 11% | 7 h | – | 43% | – | 77% | – | 2 h | – | (6) h
8 | CCCC[C@H](NC(=O)C(C)(Cc1ccccc1F)NC(=O)[C@H](CCC(N)=O)NC(=O)[C@@H](NC(=O)[C@H](CCC(=O)O)NC(=O)C1(NC(=O)[C@@H](NC(=O)C2(N)CCCC2)C(C)C)CCCC1)[C@@H](C)CC)C(=O)N[C@@H](Cc1c[nH]cn1)C(=O)N[C@@H](CCC(N)=O)C(=O)N[C@@H](CCCCNC(=N)N)C(=O)N1CCCC1(C)C(=O)N[C@@H](CCCCN)C(=O)NC(C)(Cc1ccccc1)C(N)=O (stereo partly drawn) [Seq. ID. 34] (H-[Ac5c]V[Ac5c]EIQ[ξαMePhe(2-F)][Nle]HQ[hArg][ξαMeP]K[ξαMeF]-NH2) | 8 h | 70% | 15% | – | – | 41% | – | 77% | – | 1 h | (8) h | (6) h
9 | CCCC[C@H](NC(=O)C(C)(Cc1c(F)cccc1F)NC(=O)[C@H](CCC(N)=O)NC(=O)[C@@H](NC(=O)[C@H](CCC(=O)O)NC(=O)C(C)(C)NC(=O)[C@@H](NC(=O)C1(N)CCCC1)C(C)C)[C@@H](C)CC)C(=O)N[C@@H](Cc1c[nH]cn1)C(=O)N[C@@H](CCC(N)=O)C(=O)N[C@@H](CCCCNC(=N)N)C(=O)NC(C)(C)C(=O)NC(C)(Cc1c(F)cccc1F)C(=O)NC(C)(Cc1ccccc1F)C(N)=O (stereo partly drawn) [Seq. ID. 220] (H-[Ac5c]V[Aib]EIQ[ξαMePhe(2,6-F2)][Nle]HQ[hArg][Aib][ξαMePhe(2,6-F2)][ξαMePhe(2-F)]-NH2) | 8 h | 75% | 12% | – | – | 46% | – | 83% | – | 1 h | (8) h | (6) h
